Results on 36 compounds are retold here after US9862717B2 (Merck Patent GmbH, priority 2014, dated 2018).

A value given as a limit tells only on which side of the number the result lay.

The target in the first test is T1, CDK8/CycC (Homo sapiens, UniProt P49336).
T1 construct: purchased Invitrogen PV4402
T1 sequence (P49336 whole entry): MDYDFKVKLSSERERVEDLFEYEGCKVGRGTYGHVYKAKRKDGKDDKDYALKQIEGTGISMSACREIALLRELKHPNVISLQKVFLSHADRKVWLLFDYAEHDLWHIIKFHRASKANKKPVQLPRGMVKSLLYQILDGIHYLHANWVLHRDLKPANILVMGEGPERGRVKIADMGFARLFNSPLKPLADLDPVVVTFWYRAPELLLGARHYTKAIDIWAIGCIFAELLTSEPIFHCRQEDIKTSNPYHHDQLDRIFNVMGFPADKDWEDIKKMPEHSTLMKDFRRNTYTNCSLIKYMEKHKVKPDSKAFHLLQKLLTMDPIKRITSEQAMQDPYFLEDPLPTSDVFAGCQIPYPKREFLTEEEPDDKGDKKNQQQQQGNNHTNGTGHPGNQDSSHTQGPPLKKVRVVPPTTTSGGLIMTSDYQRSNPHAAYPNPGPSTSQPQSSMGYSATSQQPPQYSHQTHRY
T1 sequence (P24863 whole entry partner): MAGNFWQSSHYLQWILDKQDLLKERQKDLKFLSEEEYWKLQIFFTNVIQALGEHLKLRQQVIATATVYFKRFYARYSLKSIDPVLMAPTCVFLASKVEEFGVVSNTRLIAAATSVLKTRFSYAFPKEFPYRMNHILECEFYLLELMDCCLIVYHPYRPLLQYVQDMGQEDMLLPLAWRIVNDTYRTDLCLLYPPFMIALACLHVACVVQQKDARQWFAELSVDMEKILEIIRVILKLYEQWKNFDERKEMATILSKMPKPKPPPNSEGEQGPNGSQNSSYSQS
In words: FRET based Lanthascreen binding competition assay for CDK8 inhibitory activity. The conditions noted are these: CDK8 co-expressed with CycC; class symbols; read-out: IC50. The source says:
Biochemical Assay for CDK8 Inhibitory Activity FRET based Lanthascreen binding competition assay: A dye-labeled ATP competitive probe served as a FRET acceptor upon binding to CDK8 labeled with a strepavidin -Eu-chelate (via a biotinylated anti His antibody). The result was a fluorescence signal at 647 nm. In case this probe was competed by an inhibitor, such a signal cannot be generated any more. The CDK8 used for this assay was a protein co-expressed with CycC. The assay procedure for an assay in a 1536 well plate was performed according to the following: 2 μL CDK8/biotin-anti-His Ab/SA-Eu mix in Assay buffer were pipetted into the wells of a micro plate. 1 μL compound in 20 mM Hepes buffer/5% DMSO was added. The plate was shaken for 30 sec and incubated for 20 min at RT. 2 μL Alexa647-probe in assay buffer were added. The plate was shaken for 30 sec again and incubated for 60 min at RT in the dark. Then the plate was read out on a Perkin Elmer Envision (mode LANCE/TRF, excitation 340 nm emission 650 nm). […] The readouts were fitted to IC50 curves using Genedata Condoseo.
With `Cc1n[nH]c2ncc(C(=O)N3CCCC3c3ccccc3)cc12` (stereo not drawn) [compound 20, (3-Methyl-1H-pyrazolo[3,4-b]pyridin-5-yl)-(2-phenyl-pyrrolidin-1-yl)-methanone], the IC50 is below 0.01 µM.
For `Cc1n[nH]c2ncc(C(=O)N3CCCC3c3cccc(Cl)c3)cc12` (stereo not drawn) [compound 21, [2-(3-Chloro-phenyl)-pyrrolidin-1-yl]-(3-methyl-1H-pyrazolo[3,4-b]pyridin-5-yl)-methanone], the half-inhibitory concentration (IC50) is 0.01 to 0.1 µM.
`Cc1n[nH]c2ncc(C(=O)N3CCC(c4ccccc4)C3)cc12` (stereo not drawn) [compound 22, (3-Methyl-1H-pyrazolo[3,4-b]pyridin-5-yl)-(3-phenyl-pyrrolidin-1-yl)-methanone]: the 50% inhibitory concentration (IC50) lay within 0.01 to 0.1 µM.
Still for that read-out and setting: to `Cc1n[nH]c2ncc(C(=O)N3CCCC3c3ccccc3Cl)cc12` (stereo not drawn) [compound 23, [2-(2-Chloro-phenyl)-pyrrolidin-1-yl]-(3-methyl-1H-pyrazolo[3,4-b]pyridin-5-yl)-methanone] belongs 0.01 to 0.1 µM; to `Cc1n[nH]c2ncc(C(=O)N3CCCC[C@H]3Cc3ccccc3)cc12` [compound 24, ((S)-2-Benzyl-piperidin-1-yl)-(3-methyl-1H-pyrazolo[3,4-b]pyridin-5-yl)-methanone], 0.1 to 1 µM; to `Cc1n[nH]c2ncc(C(=O)N3CCCC3c3ccc(F)cc3)cc12` (stereo not drawn) [compound 26, [2-(4-Fluoro-phenyl)-pyrrolidin-1-yl]-(3-methyl-1H-pyrazolo[3,4-b]pyridin-5-yl)-methanone], below 0.01 µM.
As for `Cc1n[nH]c2ncc(C(=O)N3CCCC[C@H]3c3ccccc3)cc12` [compound 28, (3-Methyl-1H-pyrazolo[3,4-b]pyridin-5-yl)-((S)-2-phenyl-piperidin-1-yl)-methanone], the concentration for half-maximal inhibition (IC50) lay in the range of 0.01 to 0.1 µM.
Same read-out and setting: the result for `Cc1n[nH]c2ncc(C(=O)N3CCCC3c3ccccn3)cc12` (stereo not drawn) [compound 30, (3-Methyl-1H-pyrazolo[3,4-b]pyridin-5-yl)-(2-pyridin-2-yl-pyrrolidin-1-yl)-methanone] reads 0.1 to 1 µM; that for `CC(C)Cc1n[nH]c2ccc(C(=O)N3CCC[C@H]3c3ccc(Cl)cc3)cc12` [compound 31], below 0.01 µM; that for `Cc1n[nH]c2ncc(C(=O)N3CCCC3c3ccncc3)cc12` (stereo not drawn) [compound 32, (3-Methyl-1H-pyrazolo[3,4-b]pyridin-5-yl)-(2-pyridin-4-yl-pyrrolidin-1-yl)-methanone], 0.1 to 1 µM.
Take `CSc1ccccc1[C@@H]1CCCN1C(=O)c1cnc2[nH]nc(C)c2c1` [compound 33, (3-Methyl-1H-pyrazolo[3,4-b]pyridin-5-yl)-[(S)-2-(2-methylsulfanyl-phenyl)-pyrrolidin-1-yl]-methanone]: the IC50 lay within 0.1 to 1 µM.
Take `CSc1ccccc1[C@H]1CCCN1C(=O)c1cnc2[nH]nc(C)c2c1` [compound 34, (3-Methyl-1H-pyrazolo[3,4-b]pyridin-5-yl)-[(R)-2-(2-methylsulfanyl-phenyl)-pyrrolidin-1-yl]-methanone]: the half-maximal inhibitory concentration (IC50) fell in the range of 0.1 to 1 µM.
In the case of `Cc1n[nH]c2ncc(C(=O)N3CCC[C@H]3c3ccccc3Cl)cc12` [compound 36, [(S)-2-(2-Chloro-phenyl)-pyrrolidin-1-yl]-(3-methyl-1H-pyrazolo[3,4-b]pyridin-5-yl)-methanone], the IC50 lay within 0.01 to 0.1 µM.
For the compound `Cc1n[nH]c2ncc(C(=O)N3CCC[C@@H]3c3ccccc3Cl)cc12` [compound 37, [(R)-2-(2-Chloro-phenyl)-pyrrolidin-1-yl]-(3-methyl-1H-pyrazolo[3,4-b]pyridin-5-yl)-methanone], the IC50 was 0.1 to 1 µM.
For `Cc1n[nH]c2ncc(C(=O)N3CCC[C@@H]3c3ccccc3)cc12` [compound 38, (3-Methyl-1H-pyrazolo[3,4-b]pyridin-5-yl)-((R)-2-phenyl-pyrrolidin-1-yl)-methanone], the IC50 lay in the range of 0.1 to 1 µM.
As to `Cc1n[nH]c2ncc(C(=O)N3CCC[C@H]3c3ccccc3)cc12` [compound 39, (3-Methyl-1H-pyrazolo[3,4-b]pyridin-5-yl)-((S)-2-phenyl-pyrrolidin-1-yl)-methanone], the half-maximal inhibitory concentration (IC50) is below 0.01 µM.
Regarding `Cc1n[nH]c2ncc(C(=O)N3CC[C@H](c4ccccc4)C3)cc12` [compound 40, (3-Methyl-1H-pyrazolo[3,4-b]pyridin-5-yl)-((R)-3-phenyl-pyrrolidin-1-yl)-methanone], the IC50 is 0.1 to 1 µM.
In the case of `Cc1n[nH]c2ncc(C(=O)N3CC[C@@H](c4ccccc4)C3)cc12` [compound 41, (3-Methyl-1H-pyrazolo[3,4-b]pyridin-5-yl)-((S)-3-phenyl-pyrrolidin-1-yl)-methanone], the IC50 is 0.01 to 0.1 µM.
In the case of `Cc1n[nH]c2ncc(C(=O)N3CCC[C@H]3c3ccc(F)cc3)cc12` [compound 43, [(S)-2-(4-Fluoro-phenyl)-pyrrolidin-1-yl]-(3-methyl-1H-pyrazolo[3,4-b]pyridin-5-yl)-methanone], the IC50 is below 0.01 µM.
With `Cc1n[nH]c2ncc(C(=O)N3CCC[C@@H]3c3ccc(F)cc3)cc12` [compound 44, [(R)-2-(4-Fluoro-phenyl)-pyrrolidin-1-yl]-(3-methyl-1H-pyrazolo[3,4-b]pyridin-5-yl)-methanone], the 50% inhibitory concentration (IC50) was in the range of 0.1 to 1 µM.
On to `Cc1n[nH]c2ncc(C(=O)N3CCC[C@@H]3c3cccc(Cl)c3)cc12` [compound 45, [(r)-2-(3-Chloro-phenyl)-pyrrolidin-1-yl]-(3-methyl-1H-pyrazolo[3,4-b]pyridin-5-yl)-methanone], for which the IC50 is 0.1 to 1 µM.
As to `Cc1n[nH]c2ncc(C(=O)N3CCC[C@H]3c3cccc(Cl)c3)cc12` [compound 46, [(S)-2-(3-Chloro-phenyl)-pyrrolidin-1-yl]-(3-methyl-1H-pyrazolo[3,4-b]pyridin-5-yl)-methanone], the IC50 was in the range of 0.01 to 0.1 µM.
`Cc1n[nH]c2ccc(C(=O)N3CCC[C@H]3c3ccc(Br)cc3)cc12` [compound 49, [(S)-2-(4-Bromo-phenyl)-pyrrolidin-1-yl]-(3-methyl-1H-indazol-5-yl)-methanone]: the half-inhibitory concentration (IC50) is below 0.01 µM.
Still for that read-out and setting: the result for `Cc1n[nH]c2ccc(C(=O)N3CCC[C@@H]3c3ccc(Br)cc3)cc12` [compound 50, [(R)-2-(4-Bromo-phenyl)-pyrrolidin-1-yl]-(3-methyl-1H-indazol-5-yl)-methanone] reads 0.1 to 1 µM; that for `Cc1n[nH]c2ccc(C(=O)N3CCC[C@@H]3c3ccc(Br)cc3)nc12` [compound 53, [(R)-2-(4-Bromo-phenyl)-pyrrolidin-1-yl]-(3-methyl-1H-pyrazolo[4,3-b]pyridin-5-yl)-methanone], 0.1 to 1 µM.
As to `Cc1n[nH]c2ccc(C(=O)N3CCC[C@H]3c3ccc(Br)cc3)nc12` [compound 54, [(S)-2-(4-Bromo-phenyl)-pyrrolidin-1-yl]-(3-methyl-1H-pyrazolo[4,3-b]pyridin-5-yl)-methanone], the 50% inhibitory concentration (IC50) was below 0.01 µM.
Consider `Cc1n[nH]c2ncc(C(=O)N3CCC3c3ccc(Cl)cc3)cc12` (stereo not drawn) [compound 55, [2-(4-Chloro-phenyl)-azetidin-1-yl]-(3-methyl-1H-pyrazolo[3,4-b]pyridin-5-yl)-methanone], for which the 50% inhibitory concentration (IC50) lay in the range of 0.01 to 0.1 µM.
The same measure, in the same setting: to `Cc1n[nH]c2ncc(C(=O)N3CC[C@H]3c3ccc(F)cc3)cc12` [compound 56, [(S)-2-(4-Fluoro-phenyl)-azetidin-1-yl]-(3-methyl-1H-pyrazolo[3,4-b]pyridin-5-yl)-methanone] belongs 0.01 to 0.1 µM.
`Cc1n[nH]c2ncc(C(=O)N3CCCCCC3c3ccc(Cl)cc3)cc12` (stereo not drawn) [compound 57, [2-(4-Chloro-phenyl)-azepan-1-yl]-(3-methyl-1H-pyrazolo[3,4-b]pyridin-5-yl)-methanone]: the IC50 was in the range of 0.1 to 1 µM.
For the compound `Cc1n[nH]c2ncc(C(=O)N3CCCCCC3c3cccc(F)c3)cc12` (stereo not drawn) [compound 58, [2-(3-Fluoro-phenyl)-azepan-1-yl]-(3-methyl-1H-pyrazolo[3,4-b]pyridin-5-yl)-methanone], the IC50 is 0.01 to 0.1 µM.
As for `Cc1n[nH]c2ncc(C(=O)N3CCCCC(c4ccc(Cl)cc4)C3)cc12` (stereo not drawn) [compound 59, [3-(4-Chloro-phenyl)-azepan-1-yl]-(3-methyl-1H-pyrazolo[3,4-b]pyridin-5-yl)-methanone], the IC50 was in the range of 0.01 to 0.1 µM.
Turning to `Cc1ccc(C2CCCN2C(=O)c2cnc3[nH]nc(C)c3c2)cc1` (stereo not drawn) [compound 62, (3-Methyl-1H-pyrazolo[3,4-b]pyridin-5-yl)-(2-p-tolyl-pyrrolidin-1-yl)-methanone], the IC50 is below 0.01 µM.
The same measure, in the same setting: to `Cc1n[nH]c2ncc(C(=O)N3CCCC3c3ccc(C(F)(F)F)cc3)cc12` (stereo not drawn) [compound 63, (3-Methyl-1H-pyrazolo[3,4-b]pyridin-5-yl)-[2-(4-trifluoromethyl-phenyl)-pyrrolidin-1-yl]-methanone] belongs below 0.01 µM.

The test is the same for the next values; noted with them: IC50 [μM], CDK8 co-expressed with CycC; class symbols.
The compound `Cc1n[nH]c2ccc(C(=O)N3CCC[C@@H]3c3ccc(Cl)cc3)cc12` [compound 47, [(R)-2-(4-Chloro-phenyl)-pyrrolidin-1-yl]-(3-methyl-1H-indazol-5-yl)-methanone] showed an IC50 of 0.1 to 1 µM.
The compound `Cc1n[nH]c2ccc(C(=O)N3CCC[C@H]3c3ccc(Cl)cc3)cc12` [compound 48, [(S)-2-(4-Chloro-phenyl)-pyrrolidin-1-yl]-(3-methyl-1H-indazol-5-yl)-methanone] gave a concentration for half-maximal inhibition (IC50) below 0.01 µM.
The compound `Cc1n[nH]c2ccc(C(=O)N3CCC[C@H]3c3ccc(Cl)cc3)nc12` [compound 52, [(S)-2-(4-Chloro-phenyl)-pyrrolidin-1-yl]-(3-methyl-1H-pyrazolo[4,3-b]pyridin-5-yl)-methanone] came in with an IC50 below 0.01 µM.
